Experimental data: PubChem BioAssay AID1963985 (Molecular Pharmacology Branch, DTP, NCI, 2024)

System: 252836-082-R-J2-PDC tumor spheroids, viability
Assay: Anticancer human tumor 252836-082-R-J2-PDC patient-derived head and neck squamous cell carcinoma cell line growth inhibition [PI3K]
Settings: spheroids with HUVEC and MSC; for IC50: curve of first compound; for viability, T/C: stronger effect = lower value
Outline: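 Tumor cells were combined with HUVEC and MSCs into spheroids, then dosed with PI3K-inhibitor combinations over half-log ranges capped near clinical Cmax or 10 microM.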
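Also: spheroids exposed to agents for seven days before readout.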
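For viability, T/C in this document: percent of vehicle DMSO control viability so 100% = untreated growth.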

Work on CNC(=O)c1ccc(N2C(=S)N(c3ccc(C#N)c(C(F)(F)F)c3)C(=O)C2(C)C)cc1F + CC(Nc1ncnc2nc[nH]c12)c1cc2cccc(Cl)c2c(=O)n1-c1ccccc1 yielded an IC50 (second compound 0.0316 µM) of over 10000 nM, an IC50 (second compound 0.1 µM) of over 10000 nM and an IC50 (second compound 0.316 µM) of over 10000 nM. It also gave an IC50 (second compound 1 µM) of over 10000 nM, an IC50 (second compound 3.16 µM) of over 10000 nM and an IC50 (second compound 10 µM) of over 10000 nM. For the same compound, the viability, T/C (second compound 0.0316 µM, first compound 0.0316 µM) was 103%, the viability, T/C (second compound 0.0316 µM, first compound 0.1 µM) was 83.9% and the viability, T/C (second compound 0.0316 µM, first compound 0.316 µM) was 91.7%. It also gave a viability, T/C (second compound 0.0316 µM, first compound 1 µM) of 85.1%, a viability, T/C (second compound 0.0316 µM, first compound 3.16 µM) of 98.2% and a viability, T/C (second compound 0.0316 µM, first compound 10 µM) of 93.4%. The viability, T/C (second compound 0.1 µM, first compound 0.0316 µM) was 86.4%, the viability, T/C (second compound 0.1 µM, first compound 0.1 µM) was 83.5% and the viability, T/C (second compound 0.1 µM, first compound 0.316 µM) was 113%. The viability, T/C (second compound 0.1 µM, first compound 1 µM) was 91.2%, the viability, T/C (second compound 0.1 µM, first compound 3.16 µM) was 86.2% and the viability, T/C (second compound 0.1 µM, first compound 10 µM) was 78.6%. The viability, T/C (second compound 0.316 µM, first compound 0.0316 µM) was 102%, the viability, T/C (second compound 0.316 µM, first compound 0.1 µM) was 79.5% and the viability, T/C (second compound 0.316 µM, first compound 0.316 µM) was 90.5%. It also gave a viability, T/C (second compound 0.316 µM, first compound 1 µM) of 90.2%, a viability, T/C (second compound 0.316 µM, first compound 3.16 µM) of 88.7% and a viability, T/C (second compound 0.316 µM, first compound 10 µM) of 78%. It also gave a viability, T/C (second compound 1 µM, first compound 0.0316 µM) of 80.9%, a viability, T/C (second compound 1 µM, first compound 0.1 µM) of 94.9% and a viability, T/C (second compound 1 µM, first compound 0.316 µM) of 90.9%. It also gave a viability, T/C (second compound 1 µM, first compound 1 µM) of 89.6%, a viability, T/C (second compound 1 µM, first compound 3.16 µM) of 94% and a viability, T/C (second compound 1 µM, first compound 10 µM) of 80.6%. It also gave a viability, T/C (second compound 3.16 µM, first compound 0.0316 µM) of 85.7%, a viability, T/C (second compound 3.16 µM, first compound 0.1 µM) of 73.2% and a viability, T/C (second compound 3.16 µM, first compound 0.316 µM) of 75.7%. The viability, T/C (second compound 3.16 µM, first compound 1 µM) was 74.3%, the viability, T/C (second compound 3.16 µM, first compound 3.16 µM) was 86.4% and the viability, T/C (second compound 3.16 µM, first compound 10 µM) was 62.2%. For the same compound, the viability, T/C (second compound 10 µM, first compound 0.0316 µM) was 63%, the viability, T/C (second compound 10 µM, first compound 0.1 µM) was 71.8% and the viability, T/C (second compound 10 µM, first compound 0.316 µM) was 70.9%. The viability, T/C (second compound 10 µM, first compound 1 µM) was 70.5%, the viability, T/C (second compound 10 µM, first compound 3.16 µM) was 69.8% and the viability, T/C (second compound 10 µM, first compound 10 µM) was 59.3%.

In the case of Cn1cnc2c(F)c(Nc3ccc(Br)cc3Cl)c(C(=O)NOCCO)cc21 + CC(Nc1ncnc2nc[nH]c12)c1cc2cccc(Cl)c2c(=O)n1-c1ccccc1, the IC50 (second compound 0.0316 µM) is reported as 2200 nM, the IC50 (second compound 0.1 µM) is reported as 2800 nM and the IC50 (second compound 0.316 µM) is reported as 2610 nM. For the same compound, the IC50 (second compound 1 µM) was 2100 nM, the IC50 (second compound 3.16 µM) was 1480 nM and the IC50 (second compound 10 µM) was 923 nM. It also gave a viability, T/C (second compound 0.0316 µM, first compound 0.00949 µM) of 102%, a viability, T/C (second compound 0.0316 µM, first compound 0.03 µM) of 76.5% and a viability, T/C (second compound 0.0316 µM, first compound 0.0949 µM) of 81.5%. The viability, T/C (second compound 0.0316 µM, first compound 0.3 µM) was 92.7%, the viability, T/C (second compound 0.0316 µM, first compound 0.949 µM) was 65.5% and the viability, T/C (second compound 0.0316 µM, first compound 3 µM) was 44.2%. The viability, T/C (second compound 0.1 µM, first compound 0.00949 µM) was 89.9%, the viability, T/C (second compound 0.1 µM, first compound 0.03 µM) was 77.2% and the viability, T/C (second compound 0.1 µM, first compound 0.0949 µM) was 88.8%. The viability, T/C (second compound 0.1 µM, first compound 0.3 µM) was 95.3%, the viability, T/C (second compound 0.1 µM, first compound 0.949 µM) was 74.5% and the viability, T/C (second compound 0.1 µM, first compound 3 µM) was 48.4%. The viability, T/C (second compound 0.316 µM, first compound 0.00949 µM) was 88%, the viability, T/C (second compound 0.316 µM, first compound 0.03 µM) was 87.2% and the viability, T/C (second compound 0.316 µM, first compound 0.0949 µM) was 88.6%. It also gave a viability, T/C (second compound 0.316 µM, first compound 0.3 µM) of 79.3%, a viability, T/C (second compound 0.316 µM, first compound 0.949 µM) of 77.1% and a viability, T/C (second compound 0.316 µM, first compound 3 µM) of 46%. For the same compound, the viability, T/C (second compound 1 µM, first compound 0.00949 µM) was 89.8%, the viability, T/C (second compound 1 µM, first compound 0.03 µM) was 77.3% and the viability, T/C (second compound 1 µM, first compound 0.0949 µM) was 85.3%. The viability, T/C (second compound 1 µM, first compound 0.3 µM) was 75.6%, the viability, T/C (second compound 1 µM, first compound 0.949 µM) was 72% and the viability, T/C (second compound 1 µM, first compound 3 µM) was 40.4%. It also gave a viability, T/C (second compound 3.16 µM, first compound 0.00949 µM) of 82.1%, a viability, T/C (second compound 3.16 µM, first compound 0.03 µM) of 78.5% and a viability, T/C (second compound 3.16 µM, first compound 0.0949 µM) of 64.6%. For the same compound, the viability, T/C (second compound 3.16 µM, first compound 0.3 µM) was 66%, the viability, T/C (second compound 3.16 µM, first compound 0.949 µM) was 61.3% and the viability, T/C (second compound 3.16 µM, first compound 3 µM) was 38.6%. The viability, T/C (second compound 10 µM, first compound 0.00949 µM) was 67.3%, the viability, T/C (second compound 10 µM, first compound 0.03 µM) was 67.1% and the viability, T/C (second compound 10 µM, first compound 0.0949 µM) was 64.2%. The viability, T/C (second compound 10 µM, first compound 0.3 µM) was 54.4%, the viability, T/C (second compound 10 µM, first compound 0.949 µM) was 53.6% and the viability, T/C (second compound 10 µM, first compound 3 µM) was 31.4%.
